In patent publication US20140128402A1, “PHARMACEUTICAL COMBINATION” (IPCA Laboratories Limited, priority 2011, published 2014):

Experiments:
Format in all cases: in vivo, Wistar rats
[1] = test system: STZ-induced diabetic rats; assay: Study No 1: biochemical parameters in STZ-induced diabetic rats; conditions: after 21 days
Description: (§1) In this experiment 48 Wistar rats weighing 130-150 g of either sex were divided randomly into 8 groups consisting of 6 rats each. The study drugs suspended in vehicle [0.1% w/v suspension of Tween 80 and carboxymethylcellulose (CMC) in water] were administered for orally for 21 days. Group 1 (normal vehicle control) consisted of normal rats that neither received streptozotocin nor any test drug; Group 2 served as streptozotocin induced diabetic control (Diabetes was induced in rats by single administration of streptozotocin (60 mg/kg/i.p) dissolved in 0.1 M-citrate buffer, pH 4.5). Forty-eight hours later, blood samples were collected and glucose levels were determined to confirm the development of diabetes. […] Group 3 was diabetic rats treated with dose equivalent to human therapeutic dose of sitagliptin (STG) (11 mg/kg); Group 4 was diabetic rats treated with dose equivalent to human therapeutic dose of Hydroxychloroquine (HCQ) (46 mg/kg), Group 5 was diabetic rats treated with combination of HCQ 46 mg/kg and STG11 mg/kg; […] For other biochemical parameters i.e. […] Other parameters like body weight, food intake and water intake were evaluated weekly till day 21st.

[2] = test system: STZ-induced diabetic rats; assay: Study No 1: body weight, food intake and water intake in STZ-induced diabetic rats; conditions: for AVERAGE WATER INTAKE: oral
Description: as §1

[3] = test system: STZ induced diabetic rats; assay: Study No 2: blood glucose in STZ induced diabetic rats (HCQ with vildagliptin and saxagliptin); conditions: for Plasma glucose concentration: oral
Description: In this experiment 96 Wistar rats weighing 150-200 g of either sex were divided randomly into 16 groups consisting of 6 rats each. The study drugs were dissolved in water/suspended in vehicle [0.1% w/v suspension of Tween 80 and carboxymethylcellulose (CMC) in water] and administered orally for 28 days. Group 1 (normal vehicle control) consisted of normal rats that neither received Streptozotocin (STZ) nor any test drug; Group 2 served as Streptozotocin induced diabetic control [Diabetes was induced in rats by single administration of Streptozotocin (55 mg/kg/i.p.) dissolved in 0.1 M-citrate buffer, pH 4.5]. Forty-eight hours later, blood samples were collected and glucose levels were determined to confirm the development of diabetes. Only animals showing hyperglycaemia (blood glucose levels>250 mg/dl) were considered as diabetic and received vehicle orally; Group 3 was diabetic rats treated with hydroxychloroquine (HCQ) (22.5 mg/kg); Group 4 was diabetic rats treated with HCQ (45 mg/kg), Group 5 was diabetic rats treated with vildagliptin (VG) 6 mg/kg; Group 6 was diabetic rats treated with VG 12 mg/kg; Group 7 was diabetic rats treated with HCQ 22.5 mg/kg+VG 12 mg/kg and Group 8 was diabetic rats treated with combination of HCQ 45 mg/kg and VG 6 mg/kg; Group 9 was diabetic rats treated with saxagliptin (SG) 0.3 mg/kg; Group 10 was diabetic rats treated with Saxagliptin (SG) 0.6 mg/kg; Group 11 was diabetic rats treated with combination of HCQ 45 mg/kg+SG 0.3 mg/kg; Group 12 was diabetic rats treated with combination of HCQ 22.5 mg/kg+SG 0.6 mg/kg; Group 13 was diabetic rats treated with combination of HCQ 22.5 mg/kg and VG 6 mg/kg; Group 14 was diabetic rats treated with combination of HCQ 45 mg/kg and VG 12 mg/kg; Group 15 was diabetic rats treated with combination of HCQ 22.5 mg/kg+SG 0.3 mg/kg; Group 16 was diabetic rats treated with combination of HCQ 45 mg/kg+SG 0.6 mg/kg.
Blood glucose level was measured in normal and experimental rats at 0, 7th, 14th, 21st and 28th day of administration.

[4] = test system: STZ-induced diabetic rats; assay: Study No 2: biochemical parameters in STZ-induced diabetic rats
[5] = test system: STZ-induced diabetic rats; assay: Study No 2: body weight, water intake and food intake in STZ-induced diabetic rats; conditions: for AVERAGE FOOD INTAKE / AVERAGE WATER INTAKE / Body Weight: oral
[6] = subtherapeutic dose: STG 5.5, HCQ 23, STG+HCQ 5.5+23 mg/kg/day oral
[7] = therapeutic dose: STG 11, HCQ 46, STG+HCQ 11+46 mg/kg/day oral
[8] = after 28 days, HCQ 22.5, VG 6, SG 0.3 mg/kg alone, HCQ+VG 22.5+6, HCQ+SG 22.5+0.3 mg/kg/day, oral
[9] = after 28 days, HCQ 45, VG 12, SG 0.6 mg/kg alone, HCQ+VG 45+12, HCQ+SG 45+0.6 mg/kg/day, oral
[10] = monotherapies, all the tested dose levels except HCQ (22.5 mg/kg), p≦0.05
[11] = Day 0, HCQ 22.5, VG 6, SG 0.3 mg/kg alone, HCQ+VG 22.5+6, HCQ+SG 22.5+0.3 mg/kg/day
[12] = Day 0, HCQ 45, VG 12, SG 0.6 mg/kg alone, HCQ+VG 45+12, HCQ+SG 45+0.6 mg/kg/day
[13] = Day 7, HCQ 22.5, VG 6, SG 0.3 mg/kg alone, HCQ+VG 22.5+6, HCQ+SG 22.5+0.3 mg/kg/day
[14] = Day 7, HCQ 45, VG 12, SG 0.6 mg/kg alone, HCQ+VG 45+12, HCQ+SG 45+0.6 mg/kg/day
[15] = Day 14, HCQ 22.5, VG 6, SG 0.3 mg/kg alone, HCQ+VG 22.5+6, HCQ+SG 22.5+0.3 mg/kg/day
[16] = Day 14, HCQ 45, VG 12, SG 0.6 mg/kg alone, HCQ+VG 45+12, HCQ+SG 45+0.6 mg/kg/day
[17] = Day 21, HCQ 22.5, VG 6, SG 0.3 mg/kg alone, HCQ+VG 22.5+6, HCQ+SG 22.5+0.3 mg/kg/day
[18] = Day 21, HCQ 45, VG 12, SG 0.6 mg/kg alone, HCQ+VG 45+12, HCQ+SG 45+0.6 mg/kg/day
[19] = Day 28, HCQ 22.5, VG 6, SG 0.3 mg/kg alone, HCQ+VG 22.5+6, HCQ+SG 22.5+0.3 mg/kg/day
[20] = Day 28, HCQ 45, VG 12, SG 0.6 mg/kg alone, HCQ+VG 45+12, HCQ+SG 45+0.6 mg/kg/day

CCN(CCO)CCCC(C)Nc1ccnc2cc(Cl)ccc12 (stereo not shown) [HCQ, Hydroxychloroquine]
Creatinine [1, 6]: 1.79 | HDL-C [1, 6]: 24.99 mg/dL | HbA1c [1, 6]: 5.30 | Insulin (serum) [1, 6]: 4.71 | SGOT [1, 6]: 57.29 | SGPT [1, 6]: 58.12 | TC [1, 6]: 166.69 mg/dL | TG [1, 6]: 130.65 mg/dL | Total Protein [1, 6]: 4.03 g/dL | Urea [1, 6]: 46.38 mg/dL | Albumin [1, 7]: 2.33 g/dL | Creatinine [1, 7]: 1.72 | HDL-C [1, 7]: 25.07 mg/dL | HbA1c [1, 7]: 4.91 | Insulin (serum) [1, 7]: 5.97 | SGOT [1, 7]: 53.77 | SGPT [1, 7]: 55.94 | TC [1, 7]: 158.57 mg/dL | TG [1, 7]: 124.68 mg/dL | Total Protein [1, 7]: 4.12 g/dL | Urea [1, 7]: 43.85 mg/dL | AVERAGE WATER INTAKE ([2]; Day 1, Sub-The (subtherapeutic dose)): 31.67 mL | AVERAGE WATER INTAKE ([2]; Day 1, The (therapeutic dose)): 30.00 mL | Body Weight ([2]; Day 1, subtherapeutic dose: STG 5.5, HCQ 23, STG+HCQ 5.5+23 mg/kg oral): 133.33 ± 17.67 g | AVERAGE FOOD INTAKE ([2]; Day 1, subtherapeutic dose: STG 5.5, HCQ 23, combination 5.5+23 mg/kg oral): 12.17 g | Body Weight ([2]; Day 1, therapeutic dose: STG 11, HCQ 46, STG+HCQ 11+46 mg/kg oral): 140.33 ± 14.60 g | AVERAGE FOOD INTAKE ([2]; Day 1, therapeutic dose: STG 11, HCQ 46, combination 11+46 mg/kg oral): 11.50 g | AVERAGE WATER INTAKE ([2]; Day 7, Sub-The (subtherapeutic dose)): 32.17 mL | AVERAGE WATER INTAKE ([2]; Day 7, The (therapeutic dose)): 29.17 mL | Body Weight ([2]; Day 7, subtherapeutic dose: STG 5.5, HCQ 23, STG+HCQ 5.5+23 mg/kg oral): 133.67 ± 16.61 g | AVERAGE FOOD INTAKE ([2]; Day 7, subtherapeutic dose: STG 5.5, HCQ 23, combination 5.5+23 mg/kg oral): 11.50 g | Body Weight ([2]; Day 7, therapeutic dose: STG 11, HCQ 46, STG+HCQ 11+46 mg/kg oral): 141.17 ± 14.26 g | AVERAGE FOOD INTAKE ([2]; Day 7, therapeutic dose: STG 11, HCQ 46, combination 11+46 mg/kg oral): 10.33 g | AVERAGE WATER INTAKE ([2]; Day 14, Sub-The (subtherapeutic dose)): 32.17 mL | AVERAGE WATER INTAKE ([2]; Day 14, The (therapeutic dose)): 28.33 mL | Body Weight ([2]; Day 14, subtherapeutic dose: STG 5.5, HCQ 23, STG+HCQ 5.5+23 mg/kg oral): 135.17 ± 16.29 g | AVERAGE FOOD INTAKE ([2]; Day 14, subtherapeutic dose: STG 5.5, HCQ 23, combination 5.5+23 mg/kg oral): 11.83 g | Body Weight ([2]; Day 14, therapeutic dose: STG 11, HCQ 46, STG+HCQ 11+46 mg/kg oral): 142.67 ± 13.52 g | AVERAGE FOOD INTAKE ([2]; Day 14, therapeutic dose: STG 11, HCQ 46, combination 11+46 mg/kg oral): 8.67 g | AVERAGE WATER INTAKE ([2]; Day 21, Sub-The (subtherapeutic dose)): 31.83 mL | AVERAGE WATER INTAKE ([2]; Day 21, The (therapeutic dose)): 28.83 mL | Body Weight ([2]; Day 21, subtherapeutic dose: STG 5.5, HCQ 23, STG+HCQ 5.5+23 mg/kg oral): 137.00 ± 15.75 g | AVERAGE FOOD INTAKE ([2]; Day 21, subtherapeutic dose: STG 5.5, HCQ 23, combination 5.5+23 mg/kg oral): 11.67 g | AVERAGE FOOD INTAKE ([2]; Day 21, therapeutic dose: STG 11, HCQ 46, combination 11+46 mg/kg oral): 8.33 g | Plasma glucose concentration ([3]; Day 0, HCQ 22.5, VG 6, SG 0.3 mg/kg alone, HCQ+VG 22.5+6, HCQ+SG 22.5+0.3 mg/kg): 292.17 ± 26.12 mg/dL | Plasma glucose concentration ([3]; Day 0, HCQ 45, VG 12, SG 0.6 mg/kg alone, HCQ+VG 45+12, HCQ+SG 45+0.6 mg/kg): 305.67 ± 27.14 mg/dL | Plasma glucose concentration ([3]; Day 7, HCQ 22.5, VG 6, SG 0.3 mg/kg alone, HCQ+VG 22.5+6, HCQ+SG 22.5+0.3 mg/kg): 278 ± 22.59 mg/dL | Plasma glucose concentration ([3]; Day 7, HCQ 45, VG 12, SG 0.6 mg/kg alone, HCQ+VG 45+12, HCQ+SG 45+0.6 mg/kg): 265.5 ± 8.87 mg/dL | Plasma glucose concentration ([3]; Day 14, HCQ 22.5, VG 6, SG 0.3 mg/kg alone, HCQ+VG 22.5+6, HCQ+SG 22.5+0.3 mg/kg): 269.33 ± 11.45 mg/dL | Plasma glucose concentration ([3]; Day 14, HCQ 45, VG 12, SG 0.6 mg/kg alone, HCQ+VG 45+12, HCQ+SG 45+0.6 mg/kg): 266.5 ± 15.86 mg/dL | Plasma glucose concentration ([3]; Day 21, HCQ 22.5, VG 6, SG 0.3 mg/kg alone, HCQ+VG 22.5+6, HCQ+SG 22.5+0.3 mg/kg): 266.67 ± 24.68 mg/dL | Plasma glucose concentration ([3]; Day 21, HCQ 45, VG 12, SG 0.6 mg/kg alone, HCQ+VG 45+12, HCQ+SG 45+0.6 mg/kg): 265.83 ± 9.22 mg/dL | Plasma glucose concentration ([3]; Day 28, HCQ 22.5, VG 6, SG 0.3 mg/kg alone, HCQ+VG 22.5+6, HCQ+SG 22.5+0.3 mg/kg): 266.5 ± 11.33 mg/dL | Plasma glucose concentration ([3]; Day 28, HCQ 45, VG 12, SG 0.6 mg/kg alone, HCQ+VG 45+12, HCQ+SG 45+0.6 mg/kg): 244.5 ± 18.1 mg/dL | blood glucose levels as compared to diabetic control group ([3]; alone at therapeutic equivalent doses, day 28): significant improvement | HbA1c [4, 8]: 11.28 ± 1.08 % | Total Protein [4, 8]: 6.16 ± 0.41 gm/dl | Urea [4, 8]: 24.68 ± 1.96 mg/dL | Creatinine [4, 9]: 1.75 ± 0.29 mg/dL | HbA1c [4, 9]: 11.07 ± 1.22 % | Total Protein [4, 9]: 6.35 ± 0.79 gm/dl | Urea [4, 9]: 23.37 ± 2.86 mg/dL | HbA1c levels as compared to diabetic control ([4]; all tested doses, 28 days, p≦0.05): significantly (p≦0.05) reduced | total protein level as compared to the diabetic control group ([4]; monotherapies at all doses, 28 days, p≦0.05): significant rise | creatinine levels as compared to diabetic control group [4, 10]: significant reduction | urea levels as compared to diabetic control group [4, 10]: significant reduction | AVERAGE FOOD INTAKE [5, 11]: 11.45 g | AVERAGE WATER INTAKE [5, 11]: 25.05 mL | Body Weight [5, 11]: 199.83 ± 17.7 g | AVERAGE FOOD INTAKE [5, 12]: 11.67 g | AVERAGE WATER INTAKE [5, 12]: 23.88 mL | Body Weight [5, 12]: 198 ± 11.03 g | AVERAGE FOOD INTAKE [5, 13]: 13.35 g | AVERAGE WATER INTAKE [5, 13]: 24.11 mL | Body Weight [5, 13]: 190.67 ± 11.41 g | AVERAGE FOOD INTAKE [5, 14]: 13.39 g | AVERAGE WATER INTAKE [5, 14]: 22.41 mL | Body Weight [5, 14]: 184.17 ± 9.99 g | AVERAGE FOOD INTAKE [5, 15]: 11.95 g | AVERAGE WATER INTAKE [5, 15]: 23.29 mL | Body Weight [5, 15]: 196.17 ± 10.93 g | AVERAGE FOOD INTAKE [5, 16]: 12.05 g | AVERAGE WATER INTAKE [5, 16]: 21.55 mL | Body Weight [5, 16]: 190.67 ± 9.56 g | AVERAGE FOOD INTAKE [5, 17]: 13.00 g | AVERAGE WATER INTAKE [5, 17]: 26.34 mL | Body Weight [5, 17]: 199.67 ± 10.52 g | AVERAGE FOOD INTAKE [5, 18]: 12.75 g | AVERAGE WATER INTAKE [5, 18]: 26.22 mL | Body Weight [5, 18]: 194.67 ± 9.52 g | AVERAGE FOOD INTAKE [5, 19]: 14.11 g | AVERAGE WATER INTAKE [5, 19]: 25.44 mL | Body Weight [5, 19]: 201.17 ± 8.7 g | AVERAGE FOOD INTAKE [5, 20]: 14.00 g | AVERAGE WATER INTAKE [5, 20]: 25.79 mL | Body Weight [5, 20]: 198.17 ± 9.15 g | body weight as compared to diabetic control group ([5]; monotherapies, p≦0.05): significant increase
